The test system of one test is CNV progression. The test can be described thus: In vivo choroidal neovascularization (CNV) model. The arrangement: species or system Brown-Norway rats. The following applies: rat laser-induced CNV, 30 nmol/eye injection on Day 3, CNV area on Day 10 vs vehicle-treated group; for inhibition in vivo at 30 nmol/eye: 240 h. The source says:
In vivo Choroidal Neovascularization (CNV) Model
This test measures the capacity of compounds to inhibit CNV progression. CNV is the main cause of severe vision loss in patients suffering from age-related macular degeneration (AMD).
Male Brown-Norway rats (Japan Clea Co., Ltd.) were used in these studies.
Rats were anesthetized by intraperitoneal injection of pentobarbital, and the right pupil was dilated with 0.5% tropicamide and 0.5% phenylephrine hydrochloride. The right eye received 6 laser burns between retinal vessels using a slit lamp delivery system of Green laser Photocoagulator (Nidex Inc., Japan), and microscope slide glass with Healon™ (AMO Inc) used as a contact lens. The laser power was 100 or 200 mW for 0.1 second and spot diameter was 100 μm. At the time of laser burn, bubble production was observed, which is an indication of rupture of Bruch's membrane which is important for CNV generation.
Rats were divided into the groups based on their body weight using SAS software (SAS institute Japan, R8.1) after laser irradiation (Day 0). After animals were anesthetized, and the right pupil dilated (as above mentioned), the right eye of the animal received the compound or vehicle by an injection (10 μL/eye) at doses of 30 nmol/eye on Day 3. The compounds were dissolved or suspended in CBS, PBS, or other adequate vehicles before injection.
On Day 10, the animals were anesthetized with ether, and high molecular weight fluorescein isothiocyanate (FITC)-dextran (SIGMA, 2×10^6 MW) was injected via a tail vein (20 mg/rat). About 30 min after FITC-dextran injection, animals were euthanized by ether or carbon dioxide, and the eyes were removed and fixed with 10% formaline neutral buffer solution. After over 1 hour of fixation, RPE-choroid-sclera flat mounts were obtained by removing cornea, lens and retina from the eyeballs. The flat mounts were mounted in 50% glycerol on a microscope slide, and the portion burned by laser was photographed using a fluorescence microscope (Nikon Corporation, excitation filter: 465-495 nm, absorption filter: 515-555 nm). The CNV area was obtained by measurement of hyper-fluorescence area observed on the photograph using Scion image.
The average CNV area of 6 burns was used as an individual value of CNV area, and the average CNV area of compound treated group was compared with that of the vehicle-treated group.

The next test addresses T1, VEGFR2 (KDR) (Homo sapiens, UniProt P35968).
T1 construct: made in house; host or cells: Sf9 cells (Spodoptera frugiperda), baculovirus (Bac-to-Bac)
In words: In vitro receptor tyrosine kinase assay (VEGF receptor KDR), DELFIA. The following applies: recombinant GST-VEGFR2 catalytic domain, ATP 0.6 uM, enzyme 5 nM. It is filed as biochemical. The source says:
In Vitro Receptor Tyrosine Kinase Assay (VEGF Receptor KDR)
This test measures the ability of compounds to inhibit the enzymatic activity of recombinant human VEGF receptor enzymatic activity.
A 1.6-kb cDNA corresponding to the catalytic domain of VEGFR2 (KDR) (Genbank accession number AF035121 amino acid 806 to 1356) is cloned into the Pst I site of the pDEST20 Gateway vector (Invitrogen) for the production of a GST-tagged version of that enzyme. This constuct is used to generate recombinant baculovirus using the Bac-to-Bac™ system according to the manucfacturer's instructions (Invitrogen).
The GST-VEGFR2806-1356 protein is expressed in Sf9 cells (Spodoptera frugiperda) upon infection with recombinant baculovirus construct. Briefly, Sf9 cells grown in suspension and maintained in serum-free medium (Sf900 II supplemented with gentamycin) at a cell density of about 2×10^6 cells/ml are infected with the above-mentioned viruses at a multiplicity of infection (MOI) of 0.1 during 72 hours at 27° C. with agitation at 120 rpm on a rotary shaker. Infected cells are harvested by centrifugation at 398 g for 15 min. Cell pellets are frozen at −80° C. until purification is performed.
All steps described in cell extraction and purification are performed at 4° C. Frozen Sf9 cell pellets infected with the GST-VEGFR2806-1356 recombinant baculovirus are thawed and gently resuspended in Buffer A (PBS pH 7.3 supplemented with 1 μg/ml pepstatin, 2 μg/ml Aprotinin and leupeptin, 50 μg/ml PMSF, 50 μg/ml TLCK and 10 μM E64 and 0.5 mM DTT) using 3 ml of buffer per gram of cells. Suspension is Dounce homogenized and 1% Triton X-100 is added to the homogenate after which it is centrifuged at 22500 g, 30 min., 4° C. The supernatant (cell extract) is used as starting material for purification of GST-VEGFR2806-1356.
The supernatant is loaded onto a GST-agarose column (Sigma) equilibrated with PBS pH 7.3. Following a four column volume (CV) wash with PBS pH 7.3+1% Triton X-100 and 4 CV wash with buffer B (50 mM Tris pH 8.0, 20% glycerol and 100mM NaCl), bound proteins are step eluted with 5 CV of buffer B supplemented with 5 mM DTT and 15 mM glutathion. GST-VEGFR2806-1356 enriched fractions from this chromatography step are pooled based on U.V. trace i.e. fractions with high O.D.280. Final GST-VEGFR2806-1356 protein preparations concentrations are about 0.7 mg/ml with purity approximating 70%. Purified GST-VEGFR2806-1356 protein stocks are aliquoted and frozen at −80° C. prior to use in enzymatic assay.
Inhibition of VEGFR/KDR is measured in a DELFIA™ assay (Perkin Elmer). The substrate poly(Glu4, Tyr) is immobilized onto black high-binding polystyrene 96-well plates. The coated plates are washed and stored at 4° C. During the assay, the enzyme is pre-incubated with inhibitor and Mg-ATP on ice in polypropylene 96-well plates for 4 minutes, and then transferred to the coated plates. The subsequent kinase reaction takes place at 30° C. for 10-30 minutes. ATP concentrations in the assay are 0.6 uM for VEGFR/KDR (2× the Km). Enzyme concentration is 5 nM. After incubation, the kinase reactions are quenched with EDTA and the plates are washed. Phosphorylated product is detected by incubation with Europium-labeled anti-phosphotyrosine MoAb. After washing the plates, bound MoAb is detected by time-resolved fluorescence in a Gemini SpectraMax reader (Molecular Devices). Compounds are evaluated over a range of concentrations and IC50's (concentration of compounds giving 50% inhibition of enzymatic activity) are determined. In the table, “a” indicates inhibitory activity at a concentration of less than 250 nanomolar; “b” indicates inhibitory activity at a concentration ≧250 but <500 nanomolar, “c” indicates inhibitory activity at ≧500 but <1000 nanomolar; and “d” indicates inhibitory activity ≧1000 nanomolar.

The test system of test [1] is VEGF-dependent Erk phosphorylation in HUVEC cells. In words: VEGF-dependent Erk phosphorylation. The conditions noted are these: Homo sapiens, 1.5 h compound, VEGF165 150 ng/ml, phospho ERK1/2 Western blot. Type of test: cell-based. From the text: VEGF-Dependent Erk Phosphorylation
HUVEC cells were purchased from Cambrex Bio Science Walkersville, Inc and cultured according to the vendor's instructions. The full-length coding sequence of VEGF165 was cloned using the Gateway Cloning Technology (Invitrogen) for baculovirus expression Sf9 cells. VEGF165 was purified from conditioned media using a NaCl gradient elution from a HiTrap heparin column (GE Healthcare Life Sciences) followed by an imidazole gradient elution from a HiTrap chelating column (GE Healthcare Life Sciences), then buffer stored in PBS supplemented with 0.1% BSA and filter sterilized
Cells were seeded at 8000 cells/well of a 96 wells plate and grown for 48 hours. Cells were then grown overnight in serum and growth factor-free medium and exposed for 1.5 h to compounds dilutions. Following a 15 min incubation in medium, VEGF165 (150 ng/ml) cells were lysed in ice-cold lysis buffer (50 mM HEPES, pH 7.4, 150 mM NaCl, 1.5 mM MgCl2, 1% Triton X-100, 10% glycerol) containing 1 mM 4-(2 aminoethyl)benzenesulfonyl fluoride hydrochloride, 200 μM sodium orthovanadate, 1 mM sodium fluoride, 10 μg/mL leupeptin, 10 μg/mL aprotinin, 1 μg/mL pepstatin and 50 μg/mL Na-p-tosyl-L-lysine chloromethyl ketone hydrochloride and processed as Western blots to detect anti-phospho ERK1/2 (T202/Y204) (Cell Signaling Technologies).
lysates samples from single treatment wells were separated on 5-20% SDS-PAGE gels and immunobloting was performed using Immobilon polyvinylidene difluoride membranes (Amersham) according to the manufacturer's instructions.

pIC50: −log10 of the molar value.

T1 sequence (P35968 806-1356): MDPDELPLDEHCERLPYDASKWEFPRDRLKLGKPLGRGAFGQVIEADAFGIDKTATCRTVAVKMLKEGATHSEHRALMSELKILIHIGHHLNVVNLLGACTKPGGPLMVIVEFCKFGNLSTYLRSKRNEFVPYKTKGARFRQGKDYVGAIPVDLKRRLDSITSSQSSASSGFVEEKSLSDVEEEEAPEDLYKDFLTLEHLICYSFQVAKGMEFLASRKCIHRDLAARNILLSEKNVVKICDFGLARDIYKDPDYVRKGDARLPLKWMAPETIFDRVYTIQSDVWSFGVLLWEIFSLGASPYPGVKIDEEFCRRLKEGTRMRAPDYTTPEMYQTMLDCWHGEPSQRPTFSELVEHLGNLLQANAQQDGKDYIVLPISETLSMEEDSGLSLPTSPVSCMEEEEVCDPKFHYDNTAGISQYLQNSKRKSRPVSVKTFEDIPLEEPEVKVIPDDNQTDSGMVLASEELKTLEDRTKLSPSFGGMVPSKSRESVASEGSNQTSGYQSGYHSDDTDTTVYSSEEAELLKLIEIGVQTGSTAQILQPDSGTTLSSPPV

Regarding `COCCNCc1cnc(-c2cc3nccc(Oc4ccc(NC(=O)NC(C)C)cc4F)c3s2)n1C` [Compound 315, 1-(3-Fluoro-4-(2-(5-((2-methoxyethylamino)methyl)-1-methyl-1H-imidazol-2-yl)thieno[3,2-b]pyridin-7-yloxy)phenyl)-3-isopropylurea], the inhibition in vivo at 30 nmol/eye in the test with CNV progression is no less than 60%.
On the same count and under the same terms, the same measure for `COCCOCCOCCOCCNCc1ccc(-c2cc3nccc(Oc4ccc(NC(=O)NC5CC5)cc4F)c3s2)nc1` [Compound 323, 1-(4-(2-(5-5,8,11,14-Tetraoxa-2-azapentadecylpyridin-2-yl)thieno[3,2-b]pyridin-7-yloxy)-3-fluorophenyl)-3-cyclopropylurea]: no less than 60%; for `N[C@@H](CCCCNCc1ccc(-c2cc3nccc(Oc4ccc(NC(=O)NC5CC5)cc4F)c3s2)nc1)C(=O)O` [Compound 324, (S)-2-amino-6-((6-(7-(4-(3-cyclopropylureido)-2-fluorophenoxy)thieno[3,2-b]pyridin-2-yl)pyridin-3-yl)methylamino)hexanoic acid]: 40 to 60%; for `COCCOCCNCc1ccc(-c2cc3nccc(Oc4ccc(NC(=O)NC5CC5)cc4F)c3s2)nc1` [Compound 331, 1-Cyclopropyl-3-(3-fluoro-4-(2-(5-((2-(2-methoxyethoxy)ethylamino)methyl)pyridin-2-yl)thieno[3,2-b]pyridin-7-yloxy)phenyl)urea]: 40 to 60%.
In the case of `O=C(Nc1ccc(Oc2ccnc3cc(-c4ccc(CN5CCCC5=O)cn4)sc23)c(F)c1)NC1CC1` [Compound 333, 1-cyclopropyl-3-(3-fluoro-4-(2-(5-((2-oxopyrrolidin-1-yl)methyl)pyridin-2-yl)thieno[3,2-b]pyridin-7-yloxy)phenyl)urea], the inhibition in vivo at 30 nmol/eye with CNV progression is no less than 60%.
For the molecule `COC[C@H](C)N(Cc1ccc(-c2cc3nccc(Oc4ccc(NC(=O)NC5CC5)cc4F)c3s2)nc1)C(C)=O` [Compound 335, (S)—N-((6-(7-(4-(3-cyclopropylureido)-2-fluorophenoxy)thieno[3,2-b]pyridin-2-yl)pyridin-3-yl)methyl)-N-(1-methoxypropan-2-yl)acetamide], the inhibition in vivo at 30 nmol/eye in the test on CNV progression was 40 to 60%.
As for `COCCN(Cc1ccc(-c2cc3nccc(Oc4ccc(NC(=O)NC5CC5)cc4F)c3s2)nc1)C(=O)[C@H](N)C(C)C` [Compound 341, (R)-2-amino-N-((6-(7-(4-(3-cyclopropylureido)-2-fluorophenoxy)thieno[3,2-b]pyridin-2-yl)pyridin-3-yl)methyl)-N-(2-methoxyethyl)-3-methylbutanamide], in the test on CNV progression, the inhibition in vivo at 30 nmol/eye was no less than 60%.
Regarding `COCCNCc1cnc(-c2cc3nccc(Oc4ccc(NC(=O)NC5CC5)cc4F)c3s2)n1C` [Compound 348], in the test on CNV progression, the “Inhibition of CNV progression” value is on record as “B (≧40% to <60% inhibition)”.
For `COCCN(Cc1cnc(-c2cc3nccc(Oc4ccc(NC(=O)NC5CC5)cc4F)c3s2)n1C)S(C)(=O)=O` [Compound 349, N-((2-(7-(4-(3-Cyclopropylureido)-2-fluorophenoxy)thieno[3,2-b]pyridin-2-yl)-1-methyl-1H-imidazol-5-yl)methyl)-N-(2-methoxyethyl)methanesulfonamide], the inhibition in vivo at 30 nmol/eye in the test on CNV progression was no less than 60%.
Molecule `COCCNCc1cnc(-c2cc3nccc(Oc4ccc(NC(=O)Nc5ccc(F)cc5F)cc4F)c3s2)n1C` [Compound 351, 1-(2,4-difluorophenyl)-3-(3-fluoro-4-(2-(5-((2-methoxyethylamino)methyl)-1-methyl-1H-imidazol-2-yl)thieno[3,2-b]pyridin-7-yloxy)phenyl)urea] registered an inhibition in vivo at 30 nmol/eye in the test with CNV progression of 40 to 60%.
On the same count and under the same terms, the same measure for `COCCNCc1cccc(-c2cc3nccc(Oc4ccc(NC(=O)Nc5cccc(P(C)(C)=O)c5)cc4F)c3s2)n1` [Compound 387, 1-(3-(dimethylphosphoryl)phenyl)-3-(3-fluoro-4-(2-(6-((2-methoxyethylamino)methyl)pyridin-2-yl)thieno[3,2-b]pyridin-7-yloxy)phenyl)urea]: 40 to 60%.
The molecule `COCCOCCOCCNCc1ccc(-c2cc3nccc(Oc4ccc(NC(=O)Nc5cccc(P(C)(C)=O)c5)cc4F)c3s2)nc1` [Compound 390, 1-(4-(2-(5-5,8,11-trioxa-2-azadodecylpyridin-2-yl)thieno[3,2-b]pyridin-7-yloxy)-3-fluorophenyl)-3-(3-(dimethylphosphoryl)phenyl)urea] yielded an inhibition in vivo at 30 nmol/eye in the test on CNV progression of 40 to 60%.
On to `COCCN(Cc1ccc(-c2cc3nccc(Oc4ccc(NC(=O)Nc5cccc(C(N)=O)c5)cc4F)c3s2)nc1)C(=O)OC` [drawing 160], for which the pIC50 (on VEGFR2 (KDR); in test [1]) was greater than 6.60 in each case.

The values are drawn from patent US8759522B2, “Inhibitors of protein tyrosine kinase activity” (Methylgene Inc., priority 2008, dated 2014).
